Columns and labels:
[1] = test system: test plant species in Wheat and Barley; assay: Post-Emergent Test III (Wheat and Barley), further species of Table 9; assay type: in vivo; conditions: for Visual Growth Reduction (%) 21 Days After Application, CHEAL: CHEAL lambsquarters (Chenopodium album); for Visual Growth Reduction (%) 21 Days After Application, CHEAL / Visual Growth Reduction (%) 21 Days After Application, GALAP / Visual Growth Reduction (%) 21 Days After Application, STEME / Visual Growth Reduction (%) 21 Days After Application, VIOTR: post-emergent; for GR50, CHEAL / GR50, GALAP / GR50, STEME / GR50, VIOTR: growth reduction of 50%; for GR50, CHEAL / GR80, CHEAL / GR90, CHEAL / GR50, GALAP / GR80, GALAP / GR90, GALAP / GR50, STEME / GR80, STEME / GR90, STEME / GR50, VIOTR / GR80, VIOTR / GR90, VIOTR: probit analysis, 21 days; for GR80, CHEAL / GR80, GALAP / GR80, STEME / GR80, VIOTR: growth reduction of 80%; for GR90, CHEAL / GR90, GALAP / GR90, STEME / GR90, VIOTR: growth reduction of 90%; for Visual Growth Reduction (%) 21 Days After Application, GALAP: GALAP cleavers (Galium aparine); for Visual Growth Reduction (%) 21 Days After Application, STEME: STEME common chickweed (Stellaria media); for Visual Growth Reduction (%) 21 Days After Application, VIOTR: VIOTR wild pansy (Viola tricolor)
Protocol: (§1) Seeds of the desired test plant species were planted in Sun Gro MetroMix® 306 planting mixture, which typically has a pH of 6.0 to 6.8 and an organic matter content of about 30 percent, in plastic pots with a surface area of 103.2 square centimeters (cm^2). When required to ensure good germination and healthy plants, a fungicide treatment and/or other chemical or physical treatment was applied. The plants were grown for 7-36 days in a greenhouse with an approximate 14 h photoperiod which was maintained at about 18° C. during the day and 17° C. during the night. Nutrients and water were added on a regular basis and supplemental lighting was provided with overhead metal halide 1000-Watt lamps as necessary. The plants were employed for testing when they reached the second or third true leaf stage.
(§2) A weighed amount, determined by the highest rate to be tested, of each test compound was placed in a 25 mL glass vial and was dissolved in 4 mL of a 97:3 v/v mixture of acetone and DMSO to obtain concentrated stock solutions. […] The concentrated stock solutions obtained were diluted with 20 mL of an aqueous mixture containing acetone, water, isopropyl alcohol, DMSO, Agri-Dex crop oil concentrate, and X-77 surfactant in a 48:39:10:1.5:1.5:0.02 v/v ratio to obtain spray solutions containing the highest application rates. Additional application rates were obtained by serial dilution of 12 mL of the high rate solution into a solution containing 2 mL of 97:3 v/v mixture of acetone and DMSO and 10 mL of an aqueous mixture containing acetone, water, isopropyl alcohol, DMSO, Agri-Dex crop oil concentrate, and X-77 surfactant in a 48:39:10:1.5:1.5:0.02 v/v ratio to obtain ½×, ¼×, ⅛× and 1/16× rates of the high rate. Compound requirements are based upon a 12 mL application volume at a rate of 187 liters per hectare (L/ha). Formulated compounds were applied to the plant material with an overhead Mandel track sprayer equipped with 8002E nozzles calibrated to deliver 187 L/ha over an application area of 0.503 square meters at a spray height of 18 inches (43 cm) above the average plant canopy height. Control plants were sprayed in the same manner with the solvent blank.
(§3) The treated plants and control plants were placed in a greenhouse as described above and watered by subirrigation to prevent wash-off of the test compounds. After 21 dAYS, the condition of the test plants as compared with that of the untreated plants was determined visually and scored on a scale of 0 to 100 percent where 0 corresponds to no injury and 100 corresponds to complete kill and presented as indicated in Table A.
(§4) By applying the well-accepted probit analysis as described by J. Berkson in Journal of the American Statistical Society, 48, 565 (1953) and by D. Finney in “Probit Analysis” Cambridge University Press (1952), herbicidal injury of a specific compound at various rates can be used to calculate GR10, GR20, GR50, GR80 and GR90 values, which are defined as growth reduction factors that correspond to the effective dose of herbicide required to provide plant growth reduction (GR) of 10 percent, 20 percent, 50 percent, 80 percent and 90 percent, respectively. Probit analysis was applied to data collected from multiple dose rates of individual compounds utilizing the procedures explained in the following examples. The analysis of those dose rates is captured in the following tables.

[2] = test system: BRSSS; assay: Post-Emergent Test III (Wheat and Barley); assay type: in vivo; conditions: for Visual Growth Reduction (%) 21 Days After Application, BRSSS: BRSSS oil seed rape (Brassica napus), post-emergent; for GR50, BRSSS: growth reduction of 50%; for GR50, BRSSS / GR80, BRSSS / GR90, BRSSS: probit analysis, 21 days; for GR80, BRSSS: growth reduction of 80%; for GR90, BRSSS: growth reduction of 90%
How it was run: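 GR10-GR90 values were derived by probit analysis of visual injury (0 = no injury, 100 = complete kill versus untreated), rated 21 days after spraying. Two- to three-true-leaf plants were sprayed at 187 L/ha with serial rates (1× to 1/16×) in aqueous acetone/isopropanol/DMSO with crop oil and X-77. Greenhouse conditions were 18 °C day/17 °C night.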

[3] = test system: LAMPU (purple deadnettle); assay: Post-Emergent Test III (Wheat and Barley); assay type: in vivo, Lamium purpureum; conditions: for Visual Growth Reduction (%) 21 Days After Application, LAMPU: LAMPU purple deadnettle (Lamium purpureum), post-emergent; for GR50, LAMPU: growth reduction of 50%; for GR50, LAMPU / GR80, LAMPU / GR90, LAMPU: probit analysis, 21 days; for GR80, LAMPU: growth reduction of 80%; for GR90, LAMPU: growth reduction of 90%
Protocol: as §1, §2, §3, §4

Nc1cc(-c2ccc(Cl)c(Cl)c2Cl)nc(C(=O)O)c1Cl [Compound 93]
Visual Growth Reduction (%) 21 Days After Application, CHEAL ([1]; 17.5 g ai/ha): C (75-84)
Visual Growth Reduction (%) 21 Days After Application, CHEAL ([1]; 35 g ai/ha): B (85-94)
Visual Growth Reduction (%) 21 Days After Application, CHEAL ([1]; 70 g ai/ha): B (85-94)
GR50, CHEAL [1]: 1 g ai/ha
GR80, CHEAL [1]: 16 g ai/ha
GR90, CHEAL [1]: 80 g ai/ha
Visual Growth Reduction (%) 21 Days After Application, GALAP ([1]; 17.5 g ai/ha): D (60-74)
Visual Growth Reduction (%) 21 Days After Application, GALAP ([1]; 35 g ai/ha): C (75-84)
Visual Growth Reduction (%) 21 Days After Application, GALAP ([1]; 70 g ai/ha): C (75-84)
GR50, GALAP [1]: 1 g ai/ha
GR80, GALAP [1]: 88 g ai/ha
GR90, GALAP [1]: >140 g ai/ha
Visual Growth Reduction (%) 21 Days After Application, STEME ([1]; 17.5 g ai/ha): E (45-59)
Visual Growth Reduction (%) 21 Days After Application, STEME ([1]; 35 g ai/ha): D (60-74)
Visual Growth Reduction (%) 21 Days After Application, STEME ([1]; 70 g ai/ha): D (60-74)
GR50, STEME [1]: 11 g ai/ha
GR80, STEME [1]: >140 g ai/ha
GR90, STEME [1]: >140 g ai/ha
Visual Growth Reduction (%) 21 Days After Application, VIOTR ([1]; 17.5 g ai/ha): E (45-59)
Visual Growth Reduction (%) 21 Days After Application, VIOTR ([1]; 35 g ai/ha): E (45-59)
Visual Growth Reduction (%) 21 Days After Application, VIOTR ([1]; 70 g ai/ha): E (45-59)
GR50, VIOTR [1]: 41 g ai/ha
GR80, VIOTR [1]: >140 g ai/ha
GR90, VIOTR [1]: >140 g ai/ha
Visual Growth Reduction (%) 21 Days After Application, BRSSS ([2]; 17.5 g ai/ha): A (95-100)
Visual Growth Reduction (%) 21 Days After Application, BRSSS ([2]; 35 g ai/ha): A (95-100)
Visual Growth Reduction (%) 21 Days After Application, BRSSS ([2]; 70 g ai/ha): A (95-100)
GR50, BRSSS [2]: 0 g ai/ha
GR80, BRSSS [2]: 3 g ai/ha
GR90, BRSSS [2]: 11 g ai/ha
Visual Growth Reduction (%) 21 Days After Application, LAMPU ([3]; 17.5 g ai/ha): A (95-100)
Visual Growth Reduction (%) 21 Days After Application, LAMPU ([3]; 35 g ai/ha): A (95-100)
Visual Growth Reduction (%) 21 Days After Application, LAMPU ([3]; 70 g ai/ha): A (95-100)
GR50, LAMPU [3]: 1 g ai/ha
GR80, LAMPU [3]: 2 g ai/ha
GR90, LAMPU [3]: 8 g ai/ha

Cc1c(-c2cc(N)c(Cl)c(C(=O)O)n2)ccc(Cl)c1Cl [Compound 28]
Visual Growth Reduction (%) 21 Days After Application, CHEAL ([1]; 17.5 g ai/ha): C (75-84)
Visual Growth Reduction (%) 21 Days After Application, CHEAL ([1]; 35 g ai/ha): C (75-84)
Visual Growth Reduction (%) 21 Days After Application, CHEAL ([1]; 70 g ai/ha): B (85-94)
GR50, CHEAL [1]: 1 g ai/ha
GR80, CHEAL [1]: 30 g ai/ha
GR90, CHEAL [1]: >140 g ai/ha
Visual Growth Reduction (%) 21 Days After Application, GALAP ([1]; 17.5 g ai/ha): F (30-44)
Visual Growth Reduction (%) 21 Days After Application, GALAP ([1]; 35 g ai/ha): E (45-59)
Visual Growth Reduction (%) 21 Days After Application, GALAP ([1]; 70 g ai/ha): D (60-74)
GR50, GALAP [1]: 29 g ai/ha
GR80, GALAP [1]: 120 g ai/ha
GR90, GALAP [1]: >140 g ai/ha
Visual Growth Reduction (%) 21 Days After Application, STEME ([1]; 17.5 g ai/ha): D (60-74)
Visual Growth Reduction (%) 21 Days After Application, STEME ([1]; 35 g ai/ha): C (75-84)
Visual Growth Reduction (%) 21 Days After Application, STEME ([1]; 70 g ai/ha): B (85-94)
GR50, STEME [1]: 11 g ai/ha
GR80, STEME [1]: 31 g ai/ha
GR90, STEME [1]: 53 g ai/ha
Visual Growth Reduction (%) 21 Days After Application, VIOTR ([1]; 17.5 g ai/ha): G (0-29)
Visual Growth Reduction (%) 21 Days After Application, VIOTR ([1]; 35 g ai/ha): G (0-29)
Visual Growth Reduction (%) 21 Days After Application, VIOTR ([1]; 70 g ai/ha): G (0-29)
GR50, VIOTR [1]: >140 g ai/ha
GR80, VIOTR [1]: >140 g ai/ha
GR90, VIOTR [1]: >140 g ai/ha
Visual Growth Reduction (%) 21 Days After Application, BRSSS ([2]; 17.5 g ai/ha): B (85-94)
Visual Growth Reduction (%) 21 Days After Application, BRSSS ([2]; 35 g ai/ha): B (85-94)
Visual Growth Reduction (%) 21 Days After Application, BRSSS ([2]; 70 g ai/ha): A (95-100)
GR50, BRSSS [2]: 1 g ai/ha
GR80, BRSSS [2]: 5 g ai/ha
GR90, BRSSS [2]: 18 g ai/ha
Visual Growth Reduction (%) 21 Days After Application, LAMPU ([3]; 17.5 g ai/ha): A (95-100)
Visual Growth Reduction (%) 21 Days After Application, LAMPU ([3]; 35 g ai/ha): A (95-100)
Visual Growth Reduction (%) 21 Days After Application, LAMPU ([3]; 70 g ai/ha): A (95-100)
GR50, LAMPU [3]: 1 g ai/ha
GR80, LAMPU [3]: 1 g ai/ha
GR90, LAMPU [3]: 1 g ai/ha

From patent US10765114B2, “4-amino-6-(pyridyl and 2-substitutedphenyl)-picolinates and 6-amino-2-(pyridyl and 2-substitutedphenyl)-pyrimidine-4-carboxylates and their use as herbicides” (Dow AgroSciences LLC, priority 2013, dated 2020)
